According to US9006244B2, “Liver X receptor modulators” (priority 2012, dated 2015):
pEC50, pKi: −log10 of the molar value.

Key:
[1] = target: LXRα ligand binding domain (LBD) (Homo sapiens (Human), UniProt Q13133); assay: LXR α radioligand binding assay (SPA, [3H]TO901317 competition)
Protocol: (§1) Poly-lysine SPA beads (50 μg) were added to each well and the total volume was adjusted to 120 μL. The plates were shaken on an orbital shaker for 20 min and then allowed to settle for 10 more minutes at rt before a brief centrifugation at 2,000 rpm for 1 min.

[2] = target: LXRβ ligand binding domain (LBD) (Homo sapiens (Human), UniProt P55055); assay: LXR β radioligand binding assay (SPA, [3H]TO901317 competition); conditions: for selectivity for the LXRβ subtype over the LXRα subtype: LXRβ versus LXRα, statement in the summary
Chain of LXRβ ligand binding domain (LBD) (P55055 222-460): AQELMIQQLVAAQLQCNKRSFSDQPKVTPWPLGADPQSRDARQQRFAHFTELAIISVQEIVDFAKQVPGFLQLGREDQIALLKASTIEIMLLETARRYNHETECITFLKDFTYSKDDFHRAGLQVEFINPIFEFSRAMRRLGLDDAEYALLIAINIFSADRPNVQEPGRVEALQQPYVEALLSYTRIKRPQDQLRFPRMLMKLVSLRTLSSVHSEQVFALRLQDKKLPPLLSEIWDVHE
Protocol: as §1

LXRα = LXRα (Homo sapiens (Human), UniProt Q13133); assay: LXR luciferase transcriptional reporter gene assay, Gal4-LXRα LBD in HEK293 cells; assay type: cell-based; conditions: pG5-Luc luciferase reporter, 16 h, read-out: LXRα CELL EC50
Chain of LXRα (Q13133 209-447): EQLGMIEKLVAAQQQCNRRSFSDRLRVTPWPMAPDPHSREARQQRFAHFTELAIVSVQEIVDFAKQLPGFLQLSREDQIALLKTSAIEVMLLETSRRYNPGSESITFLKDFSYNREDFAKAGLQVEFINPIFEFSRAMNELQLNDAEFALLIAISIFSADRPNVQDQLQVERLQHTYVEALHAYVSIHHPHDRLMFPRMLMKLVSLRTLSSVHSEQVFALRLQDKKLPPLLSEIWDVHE
Protocol: (§2) The LXR luciferase transcriptional reporter gene assay measures the ability of LXR ligands to promote transcriptional activation via the ligand binding domain (LBD) of LXR. […] 90% confluent cells from a 150 mm dish were seeded in six 100 mm dishes. The cells were batch-transfected with an expression plasmid containing the Gal4 DNA binding domain fused to either the LBD of LXRα or LXRβ and a luciferase reporter plasmid pG5-Luc (Promega, Madison, Wis.), which has Gal4 response elements upstream of firefly luciferase gene (luc+). […] Five h following transfection, 15 mL of 10% charcoal-treated FBS (Hyclone, #SH30070.03) in DMEM were added to the transfected dishes without removing transfection media, and then incubate the cells at 37° C. overnight. The next day, the cells from the transfected dish were trypsinized, washed with PBS, resuspended in 10% charcoal-treated DMEM media and plated into 96-well plates with 60,000 cells/100 μL per well. The cells were incubated at 37° C. for ˜4 h before addition of 100 μL of test compound or control ligand at different concentrations (final DMSO concentration at 0.2%). Following incubation of the cells for 16 h with substances, the culture media were dumped and Bright-Glo™ luciferase reagent (Promega, Cat. #E2610) was added to lyse the cells and initiate the luciferase reaction. Luminescence, as a measure of luciferase activity, was detected in a plate reader (Victor2, PE-Wallac). Transcriptional activation in the presence of a test substance was expressed as fold-change in luminescence compared to that of cells incubated in the absence of the substance. EC50 values were calculated using the XLfit™ program (IDBS, Guilford, UK).

LXRβ = LXRβ (Homo sapiens (Human), UniProt P55055); assay: LXR luciferase transcriptional reporter gene assay, Gal4-LXRβ LBD in HEK293 cells; assay type: cell-based; conditions: pG5-Luc luciferase reporter, 16 h, read-out: LXRβ CELL EC50
Chain of LXRβ (P55055 222-460): as the sequence (P55055 222-460) above
Protocol: as §2

Chain of LXRα ligand binding domain (LBD) (Q13133 209-447): as the sequence (Q13133 209-447) above

Question: With `CC(C)C1c2nc3ccc(S(C)(=O)=O)cc3n2CCN1c1nccc(C(F)(F)F)n1` (centres unmarked) [Compound E1, 1-isopropyl-7-(methylsulfonyl)-2-(4-(trifluoromethyl)pyrimidin-2-yl)-1,2,3,4-tetrahydrobenzo[4,5]imidazo[1,2-a]pyrazine] as the compound, how does the pKi [1] read?
Answer: 5.75

Question: And the pKi [2]?
Answer: 6.59

Question: And the pEC50 (LXRα)?
Answer: 5.47

Question: What about the pEC50 (LXRβ) of the same compound?
Answer: 6.50

Question: How did the pKi [1] turn out when `CC(C)[C@H]1c2cc3cc(CO)c(S(C)(=O)=O)cc3n2CCN1c1nccc(C(F)(F)F)n1` (single isomer, unassigned) [Compound E4b, (1-isopropyl-7-(methylsulfonyl)-2-(4-(trifluoromethyl)pyrimidin-2-yl)-1,2,3,4-tetrahydropyrazino[1,2-a]indol-8-yl)methanol] was run?
Answer: < 5.48

Question: What about the pKi [2] of the same compound?
Answer: 6.07

Question: What about the pEC50 (LXRα) of the same compound?
Answer: < 4.70

Question: And the pEC50 (LXRβ)?
Answer: < 4.70

Question: What does the source list for `CC(C)[C@@H]1c2nc3cc(CO)c(S(C)(=O)=O)cc3n2CCN1c1nccc(C(F)(F)F)n1` (single isomer, unassigned) [Compound E2a]?
Answer: pKi [1]: 6.50; pKi [2]: 7.70; selectivity for the LXRβ subtype over the LXRα subtype [2]: selective for the LXRβ subtype over the LXRα subtype; pEC50 (LXRα): 6.47; pEC50 (LXRβ): 7.89

Question: How did the pKi [1] turn out when `CC(C)[C@H]1c2cc3ccc(S(C)(=O)=O)cc3n2CCN1c1nccc(C(F)(F)F)n1` (single isomer, unassigned) [Compound E3b, 1-isopropyl-7-(methylsulfonyl)-2-(4-(trifluoromethyl)pyrimidin-2-yl)-1,2,3,4-tetrahydropyrazino[1,2-a]indole] was run?
Answer: < 5.48

Question: And the pEC50 (LXRα)?
Answer: < 4.70

Question: Which results are given for `CC(C)[C@H]1c2nc3cc(CO)c(S(C)(=O)=O)cc3n2CCN1c1nccc(C(F)(F)F)n1` (single isomer, unassigned) [Compound E2b]?
Answer: pKi [1]: < 5.48; pKi [2]: < 5.60; pEC50 (LXRα): 4.76; pEC50 (LXRβ): 5.16

Question: Which results are given for `CC(C)[C@@H]1c2cc3cc(CO)c(S(C)(=O)=O)cc3n2CCN1c1nccc(C(F)(F)F)n1` (single isomer, unassigned) [Compound E4a, (1-isopropyl-7-(methylsulfonyl)-2-(4-(trifluoromethyl)pyrimidin-2-yl)-1,2,3,4-tetrahydropyrazino[1,2-a]indol-8-yl)methanol]?
Answer: pKi [1]: 7.37; pKi [2]: 8.40; selectivity for the LXRβ subtype over the LXRα subtype [2]: selective for the LXRβ subtype over the LXRα subtype; pEC50 (LXRα): 6.79; pEC50 (LXRβ): 8.00

Question: `CC(C)[C@@H]1c2cc3ccc(S(C)(=O)=O)cc3n2CCN1c1nccc(C(F)(F)F)n1` (single isomer, unassigned) [Compound E3a, 1-isopropyl-7-(methylsulfonyl)-2-(4-(trifluoromethyl)pyrimidin-2-yl)-1,2,3,4-tetrahydropyrazino[1,2-a]indole] was tested. Which pKi [1] did it give?
Answer: 6.40

Question: And the pEC50 (LXRα)?
Answer: 5.96
